Experimental data as given in US10251395B2, “Substituted furano-/thienocycloalkylamino-2-pyrimidine derivatives and use thereof for controlling undesired plant growth” (Bayer CropScience Aktiengesellschaft, priority 2015, dated 2019).

Legend:
Abutilon theophrasti [1] = assay: Pre-emergence herbicidal effect; format: in vivo; settings: scored visually after 3 weeks
Method in brief: (§1)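 Seeds sown in sandy loam and covered with soil; WP or EC formulations sprayed onto the soil surface as aqueous suspension/emulsion at 600 to 800 L/ha water with 0.2% wetting agent. Greenhouse-grown; damage scored visually after 3 weeks against untreated controls (100% = plants dead, 0% = like control).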

Amaranthus retroflexus [2] = assay: Pre-emergence herbicidal effect; format: in vivo; settings: scored visually after 3 weeks
Method in brief: as §1

Setaria viridis [3] = assay: Pre-emergence herbicidal effect; format: in vivo; settings: scored visually after 3 weeks
Method in brief: as §1

Echinochloa crus-galli [4] = assay: Pre-emergence herbicidal effect; format: in vivo; settings: scored visually after 3 weeks
Method in brief: as §1

Matricaria inodora [5] = assay: Pre-emergence herbicidal effect; format: in vivo; settings: scored visually after 3 weeks
Method in brief: as §1

Polygonum convolvulus [6] = assay: Pre-emergence herbicidal effect; format: in vivo; settings: scored visually after 3 weeks
Method in brief: as §1

Alopecurus myosuroides [7] = assay: Pre-emergence herbicidal effect; format: in vivo; settings: scored visually after 3 weeks
Method in brief: as §1

Veronica persica [8] = assay: Pre-emergence herbicidal effect; format: in vivo; settings: scored visually after 3 weeks
Method in brief: as §1

Viola tricolor [9] = assay: Pre-emergence herbicidal effect; format: in vivo; settings: scored visually after 3 weeks
Method in brief: as §1

Stellaria media [10] = assay: Pre-emergence herbicidal effect; format: in vivo; settings: scored visually after 3 weeks
Method in brief: as §1

logP (HCOOH) = format: physicochemical; settings: HCOOH
Text: Table 2 (physicochemical characterization of selected synthesis examples)

Abutilon theophrasti [11] = assay: Post-emergence herbicidal effect; format: in vivo; settings: assessed visually after about 3 weeks vs untreated controls
Method in brief: (§2)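 Greenhouse weeds grown in sandy loam were sprayed at the one-leaf stage, 2–3 weeks after sowing, with WP or EC formulations in 600–800 L/ha water plus 0.2% wetting agent. Damage was scored visually after about 3 weeks as percent activity relative to untreated controls, where 100% means the plants died.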

Amaranthus retroflexus [12] = assay: Post-emergence herbicidal effect; format: in vivo; settings: assessed visually after about 3 weeks vs untreated controls
Method in brief: as §2

Setaria viridis [13] = assay: Post-emergence herbicidal effect; format: in vivo; settings: assessed visually after about 3 weeks vs untreated controls
Method in brief: as §2

Echinochloa crus-galli [14] = assay: Post-emergence herbicidal effect; format: in vivo; settings: assessed visually after about 3 weeks vs untreated controls
Method in brief: as §2

Matricaria inodora [15] = assay: Post-emergence herbicidal effect; format: in vivo; settings: assessed visually after about 3 weeks vs untreated controls
Method in brief: as §2

Avena fatua [16] = assay: Post-emergence herbicidal effect; format: in vivo; settings: 320 g/ha, assessed visually after about 3 weeks vs untreated controls
Method in brief: as §2

Lolium multiflorum [17] = assay: Post-emergence herbicidal effect; format: in vivo; settings: assessed visually after about 3 weeks vs untreated controls
Method in brief: as §2

Polygonum convolvulus [18] = assay: Post-emergence herbicidal effect; format: in vivo; settings: assessed visually after about 3 weeks vs untreated controls
Method in brief: as §2

Alopecurus myosuroides [19] = assay: Post-emergence herbicidal effect; format: in vivo; settings: 320 g/ha, assessed visually after about 3 weeks vs untreated controls
Method in brief: as §2

Veronica persica [20] = assay: Post-emergence herbicidal effect; format: in vivo; settings: 320 g/ha, assessed visually after about 3 weeks vs untreated controls
Method in brief: as §2

Viola tricolor [21] = assay: Post-emergence herbicidal effect; format: in vivo; settings: assessed visually after about 3 weeks vs untreated controls
Method in brief: as §2

Stellaria media [22] = assay: Post-emergence herbicidal effect; format: in vivo; settings: assessed visually after about 3 weeks vs untreated controls
Method in brief: as §2

Ipomoea purpurea = assay: Post-emergence herbicidal effect; format: in vivo; settings: 320 g/ha, assessed visually after about 3 weeks vs untreated controls
Method in brief: as §2

Avena fatua [23] = assay: Pre-emergence herbicidal effect; format: in vivo; settings: Dosage 320 g/ha, scored visually after 3 weeks
Method in brief: as §1

Lolium multiflorum [24] = assay: Pre-emergence herbicidal effect; format: in vivo; settings: Dosage 320 g/ha, scored visually after 3 weeks
Method in brief: as §1

Cc1cc2c(s1)CC(C)C2Nc1ncc(S(C)(=O)=O)c(N)n1 (racemic) [compound 17]
ABUTH pre-emergence efficacy (herbicidal activity) (Abutilon theophrasti [1]; Dosage 80 g/ha): 80% | ABUTH pre-emergence efficacy (herbicidal activity) (Abutilon theophrasti [1]; Dosage 320 g/ha): 100% | AMARE pre-emergence efficacy (herbicidal activity) (Amaranthus retroflexus [2]; Dosage 80 g/ha): 100% | AMARE pre-emergence efficacy (herbicidal activity) (Amaranthus retroflexus [2]; Dosage 320 g/ha): 100% | SETVI pre-emergence efficacy (herbicidal activity) (Setaria viridis [3]; Dosage 80 g/ha): 60% | SETVI pre-emergence efficacy (herbicidal activity) (Setaria viridis [3]; Dosage 320 g/ha): 100% | ECHCG pre-emergence efficacy (herbicidal activity) (Echinochloa crus-galli [4]; Dosage 80 g/ha): 100% | ECHCG pre-emergence efficacy (herbicidal activity) (Echinochloa crus-galli [4]; Dosage 320 g/ha): 100% | MATIN pre-emergence efficacy (herbicidal activity) (Matricaria inodora [5]; Dosage 80 g/ha): 100% | MATIN pre-emergence efficacy (herbicidal activity) (Matricaria inodora [5]; Dosage 320 g/ha): 100% | POLCO pre-emergence efficacy (herbicidal activity) (Polygonum convolvulus [6]; Dosage 320 g/ha): 100% | ALOMY pre-emergence efficacy (herbicidal activity) (Alopecurus myosuroides [7]; Dosage 320 g/ha): 100% | VERPE pre-emergence efficacy (herbicidal activity) (Veronica persica [8]; Dosage 80 g/ha): 100% | VERPE pre-emergence efficacy (herbicidal activity) (Veronica persica [8]; Dosage 320 g/ha): 100% | VIOTR pre-emergence efficacy (herbicidal activity) (Viola tricolor [9]; Dosage 80 g/ha): 100% | VIOTR pre-emergence efficacy (herbicidal activity) (Viola tricolor [9]; Dosage 320 g/ha): 100% | STEME pre-emergence efficacy (herbicidal activity) (Stellaria media [10]; Dosage 80 g/ha): 100% | STEME pre-emergence efficacy (herbicidal activity) (Stellaria media [10]; Dosage 320 g/ha): 100% | logP (HCOOH) (logP (HCOOH)): oily; logP (HCOOH): 2.11; 1H NMR (CDCl3, 400 MHZ, δ in ppm): 1.30 (d, 3H, 3H of | post-emergence efficacy ABUTH (Abutilon theophrasti [11]; 320 g/ha): 100% | post-emergence efficacy AMARE (Amaranthus retroflexus [12]; 320 g/ha): 100% | post-emergence efficacy SETVI (Setaria viridis [13]; 320 g/ha): 100% | post-emergence efficacy ECHCG (Echinochloa crus-galli [14]; 80 g/ha): 80% | post-emergence efficacy ECHCG (Echinochloa crus-galli [14]; 320 g/ha): 100% | post-emergence efficacy MATIN (Matricaria inodora [15]; 320 g/ha): 80% | post-emergence efficacy AVEFA (Avena fatua [16]): 100% | post-emergence efficacy LOLMU (Lolium multiflorum [17]; 80 g/ha): 90% | post-emergence efficacy LOLMU (Lolium multiflorum [17]; 320 g/ha): 100% | post-emergence efficacy POLCO (Polygonum convolvulus [18]; 80 g/ha): 80% | post-emergence efficacy POLCO (Polygonum convolvulus [18]; 320 g/ha): 80% | post-emergence efficacy ALOMY (Alopecurus myosuroides [19]): 90% | post-emergence efficacy VERPE (Veronica persica [20]): 100% | post-emergence efficacy VIOTR (Viola tricolor [21]; 320 g/ha): 90% | post-emergence efficacy STEME (Stellaria media [22]; 320 g/ha): 100% | post-emergence efficacy PHBPU (Ipomoea purpurea): 0%

Nc1nc(NC2CCc3sc(Cl)cc32)ncc1C(F)(F)F (racemic) [compound 256]
ABUTH pre-emergence efficacy (herbicidal activity) (Abutilon theophrasti [1]; Dosage 320 g/ha): 100% | AMARE pre-emergence efficacy (herbicidal activity) (Amaranthus retroflexus [2]; Dosage 80 g/ha): 100% | AMARE pre-emergence efficacy (herbicidal activity) (Amaranthus retroflexus [2]; Dosage 320 g/ha): 100% | SETVI pre-emergence efficacy (herbicidal activity) (Setaria viridis [3]; Dosage 80 g/ha): 100% | SETVI pre-emergence efficacy (herbicidal activity) (Setaria viridis [3]; Dosage 320 g/ha): 100% | ECHCG pre-emergence efficacy (herbicidal activity) (Echinochloa crus-galli [4]; Dosage 80 g/ha): 100% | ECHCG pre-emergence efficacy (herbicidal activity) (Echinochloa crus-galli [4]; Dosage 320 g/ha): 100% | MATIN pre-emergence efficacy (herbicidal activity) (Matricaria inodora [5]; Dosage 80 g/ha): 100% | MATIN pre-emergence efficacy (herbicidal activity) (Matricaria inodora [5]; Dosage 320 g/ha): 100% | AVEFA pre-emergence efficacy (herbicidal activity) (Avena fatua [23]): 100% | LOLMU pre-emergence efficacy (herbicidal activity) (Lolium multiflorum [24]): 100% | POLCO pre-emergence efficacy (herbicidal activity) (Polygonum convolvulus [6]; Dosage 80 g/ha): 100% | POLCO pre-emergence efficacy (herbicidal activity) (Polygonum convolvulus [6]; Dosage 320 g/ha): 100% | ALOMY pre-emergence efficacy (herbicidal activity) (Alopecurus myosuroides [7]; Dosage 80 g/ha): 60% | ALOMY pre-emergence efficacy (herbicidal activity) (Alopecurus myosuroides [7]; Dosage 320 g/ha): 100% | VERPE pre-emergence efficacy (herbicidal activity) (Veronica persica [8]; Dosage 80 g/ha): 100% | VERPE pre-emergence efficacy (herbicidal activity) (Veronica persica [8]; Dosage 320 g/ha): 100% | VIOTR pre-emergence efficacy (herbicidal activity) (Viola tricolor [9]; Dosage 80 g/ha): 100% | VIOTR pre-emergence efficacy (herbicidal activity) (Viola tricolor [9]; Dosage 320 g/ha): 100% | STEME pre-emergence efficacy (herbicidal activity) (Stellaria media [10]; Dosage 80 g/ha): 100% | STEME pre-emergence efficacy (herbicidal activity) (Stellaria media [10]; Dosage 320 g/ha): 100% | logP (HCOOH) (logP (HCOOH)): solid; logP (HCOOH): 2.30; 1H NMR (CDCl3, 400 MHZ, δ in ppm): 2.15 (m, 1H, 1H | post-emergence efficacy ABUTH (Abutilon theophrasti [11]; 80 g/ha): 90% | post-emergence efficacy ABUTH (Abutilon theophrasti [11]; 320 g/ha): 90% | post-emergence efficacy AMARE (Amaranthus retroflexus [12]; 80 g/ha): 100% | post-emergence efficacy AMARE (Amaranthus retroflexus [12]; 320 g/ha): 100% | post-emergence efficacy SETVI (Setaria viridis [13]; 80 g/ha): 90% | post-emergence efficacy SETVI (Setaria viridis [13]; 320 g/ha): 90% | post-emergence efficacy ECHCG (Echinochloa crus-galli [14]; 80 g/ha): 100% | post-emergence efficacy ECHCG (Echinochloa crus-galli [14]; 320 g/ha): 100% | post-emergence efficacy MATIN (Matricaria inodora [15]; 80 g/ha): 100% | post-emergence efficacy MATIN (Matricaria inodora [15]; 320 g/ha): 100% | post-emergence efficacy AVEFA (Avena fatua [16]): 70% | post-emergence efficacy LOLMU (Lolium multiflorum [17]; 320 g/ha): 70% | post-emergence efficacy POLCO (Polygonum convolvulus [18]; 80 g/ha): 90% | post-emergence efficacy POLCO (Polygonum convolvulus [18]; 320 g/ha): 90% | post-emergence efficacy ALOMY (Alopecurus myosuroides [19]): 90% | post-emergence efficacy VIOTR (Viola tricolor [21]; 80 g/ha): 90% | post-emergence efficacy VIOTR (Viola tricolor [21]; 320 g/ha): 90% | post-emergence efficacy STEME (Stellaria media [22]; 80 g/ha): 100% | post-emergence efficacy STEME (Stellaria media [22]; 320 g/ha): 100% | post-emergence efficacy PHBPU (Ipomoea purpurea): 100%
